{"source": "paper PMC9234671", "about": "“Molecular determinants of αVβ5 localization in flat clathrin lattices – role of αVβ5 in cell adhesion and proliferation” (Journal of Cell Science, 2022)", "key": {"[1]": {"system": "integrin β5 localization in PA-JEB keratinocytes", "test": "Immunofluorescence: integrin β5 clustering in FAs/FCLs, PA-JEB", "assay_type": "cell-based, human", "settings": "5 nM calyculin A versus DMSO, 30 min, 10% FCS DMEM, three independent experiments", "description": "Fig. 3. Serine 759 and 762 are involved in regulating the localization of integrin β5. (A–C) Integrin β5 containing S759/762E or S759/762A mutations (A) were expressed in β5-deficient PA-JEB/β4 keratinocytes and the subcellular distribution of β5 was compared to β5-deficient keratinocytes expressing wild-type (WT) β5. Merged images show integrin β5 (green), vinculin (B) or clathrin (C) (red), actin (blue) and the cell nuclei (cyan). (D,E) Analysis of wild-type versus mutant integrin β5 clustering in FAs or FCLs. (F–I) PA-JEB/β4 keratinocytes were grown in 10% FCS-supplemented DMEM culture medium overnight and then treated with 5 nM calyculin A (Cal.A) or DMSO (vehicle control) for 30 min prior to fixation. Merged images show integrin β5 (green), vinculin (F) or clathrin (H) (red), actin (blue) and the cell nuclei (cyan), quantifications of β5 clustering in FAs or FCLs are shown in G,I. (J,K) Analysis of integrin β5 clustering in FAs or FCLs in PA-JEB keratinocytes after treatment with Cal.A. Representative confocal microscopy images are shown in Fig. S3. Scale bars: 20 μm. Data were obtained from three independent experiments. Total cells analyzed per condition: 109 (WT), 116 (S>E), 103 (S>A) (D), 81 (WT), 77 (S>E), 101 (S>A) (E), 126 and 123 (G), 111 and 101 (I), 106 and 102 (J), 115 and 109 (K). ****P<0.0001 (Mann–Whitney U-test). […]"}, "[2]": {"system": "GEF-H1 (phospho S886) in PA-JEB and PA-JEB/β4 keratinocytes", "test": "Western blot: GEF-H1 phosphorylation", "assay_type": "cell-based, human", "settings": "after calyculin A, n=3", "experimental": "Proteins were separated by electrophoresis using a Bolt Novex 4–12% gradient Bis-Tris gels (Invitrogen) or 15% SDS-PAGE gels (made in-house), transferred to Immobilon-P transfer membranes (Millipore Corp) and blocked for at least 30 min in 2% BSA in TBST buffer (10 mM Tris-HCl pH 7.5, 150 mM NaCl and 0.3% Tween-20). Primary antibody (diluted 1:1000 in 2% BSA in TBST buffer) incubation took place overnight at 4°C. After washing twice with TBST and twice with TBS, blots were incubated for 1 h hour at room temperature with horseradish peroxidase-conjugated goat anti-mouse-IgG or goat anti-rabbit-IgG (diluted 1:3000 in 2% BSA in TBST buffer). After subsequent washing steps, the bound antibodies were detected by enhanced chemiluminescence using SuperSignal™ West Dura Extended Duration Substrate (ThermoFisher) or Clarity™ Western ECL Substrate (Bio-Rad) as described by the manufacturer. Signal intensities were quantified using ImageJ.\nFig. S4. (A) Representative western blots of phosphorylated myosin light chain (MLC) and GAPDH in PA-JEB/β4 keratinocytes treated with DMSO versus Nocodazole. […]\nμm. Quantifications of β5 or β5 mutants clustering in FAs are shown in (C-E). […] Total cells analyzed per condition: 90 (WT, DMSO), 111 (WT, Noco.) (C), 40 (S>E, DMSO), 80 (S>E, Noco.) (D), 65 (S>A, DMSO), 82 (S>A, Noco.) (E). […]"}}}
{"smiles": "COC[C@@H]([C@H](O)[C@H](O)C(=O)NCC[C@H](C)c1nc(/C=C/C[C@@H]2O[C@]3(C[C@@H](O)[C@@H]2C)O[C@H]([C@H](C[C@H](O)[C@H](C)[C@H](O)[C@H](C)/C=C(C)/C(C)=C/C=C/C(C)=C\\C#N)OC)[C@H](OP(=O)(O)O)C3(C)C)co1)N(C)C", "note": "[calyculin A]", "values": [{"measurement": "localization of integrin β5 in FCLs, PA-JEB", "setting": "[1]; colocalization with clathrin", "result": "increased the localization in FCLs"}, {"measurement": "localization of integrin β5 in FAs, PA-JEB", "setting": "[1]; colocalization with vinculin", "result": "reduced the localization of integrin β5 in FAs"}, {"measurement": "phosphorylation of GEF-H1", "setting": "[2]", "result": "increase in the phosphorylation of GEF-H1"}]}
